Experimental data published in US11498899B2, “Nitrone herbicides” (FMC Corporation, priority 2016, dated 2022).

What was measured:
[1] = tested on: barnyardgrass (Echinochloa crus-galli); test: Test A preemergence, visual injury rating 0-100 (0 no effect, 100 complete control); type: in vivo
[2] = tested on: foxtail, giant (giant foxtail, Setaria faberii); test: Test A preemergence, visual injury rating 0-100; type: in vivo
kochia (Kochia scoparia) [3] = test: Test A preemergence, visual injury rating 0-100; type: in vivo
[4] = tested on: pigweed (Amaranthus retroflexus); test: Test A preemergence, visual injury rating 0-100; type: in vivo
[5] = tested on: ragweed (common ragweed, Ambrosia elatior); test: Test A preemergence, visual injury rating 0-100; type: in vivo
[6] = tested on: ryegrass, Italian (Italian ryegrass, Lolium multiflorum); test: Test A preemergence, visual injury rating 0-100; type: in vivo
[7] = tested on: barnyardgrass (Echinochloa crus-galli); test: Test A postemergence, visual injury rating 0-100; type: in vivo; conditions: 0 to 100 scale
[8] = tested on: blackgrass (Alopecurus myosuroides); test: Test A postemergence, visual injury rating 0-100; type: in vivo; conditions: 0 to 100 scale
corn (Zea mays) = test: Test A postemergence, visual injury rating 0-100; type: in vivo; conditions: 0 to 100 scale
[9] = tested on: foxtail, giant (giant foxtail, Setaria faberii); test: Test A postemergence, visual injury rating 0-100; type: in vivo; conditions: 0 to 100 scale
[10] = tested on: galium (catchweed bedstraw, Galium aparine); test: Test A postemergence, visual injury rating 0-100; type: in vivo; conditions: 0 to 100 scale
kochia (Kochia scoparia) [11] = test: Test A postemergence, visual injury rating 0-100; type: in vivo; conditions: 0 to 100 scale
[12] = tested on: pigweed (Amaranthus retroflexus); test: Test A postemergence, visual injury rating 0-100; type: in vivo; conditions: 0 to 100 scale
[13] = tested on: ragweed (common ragweed, Ambrosia elatior); test: Test A postemergence, visual injury rating 0-100; type: in vivo; conditions: 0 to 100 scale
[14] = tested on: ryegrass, Italian (Italian ryegrass, Lolium multiflorum); test: Test A postemergence, visual injury rating 0-100; type: in vivo; conditions: 0 to 100 scale
[15] = tested on: wheat (Triticum aestivum); test: Test A postemergence, visual injury rating 0-100; type: in vivo; conditions: 0 to 100 scale
[16] = tested on: ducksalad (Heteranthera limosa); test: Test B flooded paddy test, visual rating 0-100; conditions: Flood, 250 g ai/ha, applied to paddy water, rated after 13 to 15 days
[17] = tested on: barnyardgrass (Echinochloa crus-galli); test: Test B flooded paddy test, visual rating 0-100; conditions: Flood, 250 g ai/ha, applied to paddy water, rated after 13 to 15 days
rice (Oryza sativa) = test: Test B flooded paddy test, visual rating 0-100 (0 no effect, 100 complete control); conditions: Flood, 250 g ai/ha, applied to paddy water, rated after 13 to 15 days

Structure (SMILES) | Barnyardgrass plant response rating (0 to 100 scale) ([1]; 125 g ai/ha) | Barnyardgrass plant response rating (0 to 100 scale) ([1]; 500 g ai/ha) | Foxtail, Giant plant response rating (0 to 100 scale) ([2]; 125 g ai/ha) | Foxtail, Giant plant response rating (0 to 100 scale) ([2]; 500 g ai/ha) | Kochia plant response rating (0 to 100 scale) (kochia (Kochia scoparia) [3]; 125 g ai/ha) | Kochia plant response rating (0 to 100 scale) (kochia (Kochia scoparia) [3]; 500 g ai/ha) | Pigweed plant response rating (0 to 100 scale) ([4]; 125 g ai/ha) | Pigweed plant response rating (0 to 100 scale) ([4]; 500 g ai/ha) | Ragweed plant response rating (0 to 100 scale) ([5]; 125 g ai/ha) | Ragweed plant response rating (0 to 100 scale) ([5]; 500 g ai/ha) | Ryegrass, Italian plant response rating (0 to 100 scale) ([6]; 125 g ai/ha) | Ryegrass, Italian plant response rating (0 to 100 scale) ([6]; 500 g ai/ha) | Barnyardgrass plant response rating ([7]; 125 g ai/ha) | Barnyardgrass plant response rating ([7]; 500 g ai/ha) | Blackgrass plant response rating ([8]; 125 g ai/ha) | Blackgrass plant response rating ([8]; 500 g ai/ha) | Corn plant response rating (corn (Zea mays); 125 g ai/ha) | Corn plant response rating (corn (Zea mays); 500 g ai/ha) | Foxtail, Giant plant response rating ([9]; 125 g ai/ha) | Foxtail, Giant plant response rating ([9]; 500 g ai/ha) | also measured
CC1=[N+]([O-])[C@@H](C(=O)Nc2cccc(F)c2F)[C@H](c2cccc(Oc3ccc(F)cn3)c2)C1 [Compound 84] | 10 | 90 | 30 | 90 | 0 | 50 | 0 | 30 | 0 | 20 | 0 | 80 | 40 | 90 | 90 | 90 | 0 | 40 | 50 | 70 | Galium plant response rating ([10]; 125 g ai/ha): 40; Galium plant response rating ([10]; 500 g ai/ha): 40; Kochia plant response rating (kochia (Kochia scoparia) [11]; 125 g ai/ha): 0; Kochia plant response rating (kochia (Kochia scoparia) [11]; 500 g ai/ha): 20; Pigweed plant response rating ([12]; 125 g ai/ha): 10; Pigweed plant response rating ([12]; 500 g ai/ha): 40; Ragweed plant response rating ([13]; 125 g ai/ha): 0; Ragweed plant response rating ([13]; 500 g ai/ha): 30; Ryegrass, Italian plant response rating ([14]; 125 g ai/ha): 20; Ryegrass, Italian plant response rating ([14]; 500 g ai/ha): 90; Wheat plant response rating ([15]; 125 g ai/ha): 0; Wheat plant response rating ([15]; 500 g ai/ha): 50; Ducksalad plant response rating (0 to 100 scale) [16]: 0; Barnyardgrass plant response rating (0 to 100 scale) [17]: 0; Rice plant response rating (0 to 100 scale) (rice (Oryza sativa)): 0
CC1=[N+]([O-])C(C(=O)Nc2cccc(F)c2F)C(c2cccc(Cl)n2)C1 (centres unmarked) [Compound 89] | 0 | 40 | 0 | 30 | 0 | 0 | 0 | 0 | 0 | 0 | 0 | 0 | 20 | 30 | 0 | 0 | 0 | 0 | 0 | 0 | Galium plant response rating ([10]; 125 g ai/ha): 0; Galium plant response rating ([10]; 500 g ai/ha): 0; Kochia plant response rating (kochia (Kochia scoparia) [11]; 125 g ai/ha): 0; Kochia plant response rating (kochia (Kochia scoparia) [11]; 500 g ai/ha): 0; Pigweed plant response rating ([12]; 125 g ai/ha): 0; Pigweed plant response rating ([12]; 500 g ai/ha): 0; Ragweed plant response rating ([13]; 125 g ai/ha): 0; Ragweed plant response rating ([13]; 500 g ai/ha): 0; Ryegrass, Italian plant response rating ([14]; 125 g ai/ha): 0; Ryegrass, Italian plant response rating ([14]; 500 g ai/ha): 0; Wheat plant response rating ([15]; 125 g ai/ha): 0; Wheat plant response rating ([15]; 500 g ai/ha): 0; Ducksalad plant response rating (0 to 100 scale) [16]: 30; Barnyardgrass plant response rating (0 to 100 scale) [17]: 0; Rice plant response rating (0 to 100 scale) (rice (Oryza sativa)): 0
CC1=[N+]([O-])C(C(=O)Nc2cccc(F)c2F)C(c2cccc(C(F)(F)F)n2)C1 (centres unmarked) [Compound 90] | 90 | 90 | 50 | 90 | 0 | 60 | 0 | 0 | 0 | 0 | 0 | 0 | 10 | 80 | 30 | 50 | 0 | 0 | 20 | 90 | Galium plant response rating ([10]; 125 g ai/ha): 20; Galium plant response rating ([10]; 500 g ai/ha): 20; Kochia plant response rating (kochia (Kochia scoparia) [11]; 125 g ai/ha): 0; Kochia plant response rating (kochia (Kochia scoparia) [11]; 500 g ai/ha): 0; Pigweed plant response rating ([12]; 125 g ai/ha): 0; Pigweed plant response rating ([12]; 500 g ai/ha): 0; Ragweed plant response rating ([13]; 125 g ai/ha): 0; Ragweed plant response rating ([13]; 500 g ai/ha): 0; Ryegrass, Italian plant response rating ([14]; 125 g ai/ha): 0; Ryegrass, Italian plant response rating ([14]; 500 g ai/ha): 0; Wheat plant response rating ([15]; 125 g ai/ha): 0; Wheat plant response rating ([15]; 500 g ai/ha): 0; Ducksalad plant response rating (0 to 100 scale) [16]: 90; Barnyardgrass plant response rating (0 to 100 scale) [17]: 15; Rice plant response rating (0 to 100 scale) (rice (Oryza sativa)): 0
COc1cc(C)cc(C2CC(C)=[N+]([O-])C2C(=O)Nc2cccc(F)c2F)c1 (centres unmarked) [Compound 91] | 90 | 90 | 90 | 90 | 0 | 60 | 0 | 60 | 20 | 70 | 80 | 90 | 70 | 90 | 60 | 80 | 20 | 70 | 70 | 90 | Galium plant response rating ([10]; 125 g ai/ha): 0; Galium plant response rating ([10]; 500 g ai/ha): 30; Kochia plant response rating (kochia (Kochia scoparia) [11]; 125 g ai/ha): 0; Kochia plant response rating (kochia (Kochia scoparia) [11]; 500 g ai/ha): 30; Pigweed plant response rating ([12]; 125 g ai/ha): 0; Pigweed plant response rating ([12]; 500 g ai/ha): 30; Ragweed plant response rating ([13]; 125 g ai/ha): 0; Ragweed plant response rating ([13]; 500 g ai/ha): 30; Ryegrass, Italian plant response rating ([14]; 125 g ai/ha): 50; Ryegrass, Italian plant response rating ([14]; 500 g ai/ha): 50; Wheat plant response rating ([15]; 125 g ai/ha): 20; Wheat plant response rating ([15]; 500 g ai/ha): 50; Ducksalad plant response rating (0 to 100 scale) [16]: 55; Barnyardgrass plant response rating (0 to 100 scale) [17]: 65; Rice plant response rating (0 to 100 scale) (rice (Oryza sativa)): 0
